Experiments:
Format in all cases: binding
RPD1520 [1] = biological target: T1, RPD1520 (Rhodopseudomonas pseudopalustris, UniProt A0A1H8UI63); experiment: intrinsic tryptophan fluorescence quenching; details: excitation 275 nm; single-site fit; unit of KD printed as M^-1 (M meant)
BLR7848 = BLR7848 (Bradyrhizobium diazoefficiens, UniProt Q89CE9); experiment: fluorescence thermal shift; details: 10 μM protein, 1000 μM ligand; HEPES pH 7.5
RPD1889 = RPD1889 (Rhodopseudomonas palustris, UniProt Q139W5); experiment: fluorescence thermal shift; details: 10 μM protein, 1000 μM ligand; HEPES pH 7.5; pre-bound ligand present
RPA1789 = RPA1789 (Rhodopseudomonas palustris, UniProt Q6N8W4); experiment: X-ray crystal structure; details: co-crystallisation; SeMet protein; 1.60 Å
RPB3575 = RPB3575 (Rhodopseudomonas palustris, UniProt Q2IU40); experiment: X-ray crystal structure; details: co-crystallisation; SeMet protein; 1.70 Å
RPD1520 [2] = biological target: T1, RPD1520; experiment: fluorescence thermal shift; details: 10 μM protein, 1000 μM ligand; HEPES pH 7.5

SMILES | dTm (BLR7848) | dTm (RPD1889) | dTm (RPD1520 [2]) | further results
O=C(O)C(=O)c1ccccc1 [BZF, benzoylformic acid] |  |  |  | KD (RPD1520 [1]): 1.50 × 10^-4 ± 0.11 M^-1
O=C(O)/C=C/c1ccc(O)c(O)c1 [CAF, caffeic acid] | (p- coumaric acid, caffeic acid) produce the maximal observed thermal shifts | (p- coumaric acid, caffeic acid) produce the maximal observed thermal shifts |  | 
O=C(O)/C=C/c1ccc(O)cc1 [COU, p-coumaric acid] | (p- coumaric acid, caffeic acid) produce the maximal observed thermal shifts | (p- coumaric acid, caffeic acid) produce the maximal observed thermal shifts |  | X-ray crystal structure (RPA1789): Structures for RPA1789 and RPB3575 proteins in complex with p-coumaric acid (COU, 4-hydroxycinammic acid); X-ray crystal structure (RPB3575): The structure of RPB3575 with p-coumaric acid (COU)
O=C(O)Cc1ccccc1 [PAA, phenylacetic acid] |  |  | large Tm shifts when phenylacetic acid or hydrocinnamic acid were included | 
O=C(O)CCc1ccccc1 [hydrocinnamic acid] |  |  | large Tm shifts when phenylacetic acid or hydrocinnamic acid were included | 
